From patent publication US10028949B2, “Parenteral formulations of lipophilic pharmaceutical agents and methods for preparing and using the same” (priority 2011, dated 2018)
In brackets after ≈: the same amount, converted by molar mass. Several values for one entry are separate records, joined by “and”; a condition that tells them apart may be missing. Equal entries are not always repeated. Where two headings read alike, the source gives them in different places.

Experiments:
[1] = Plasma clearance of Itraconazole and Posaconazole after IV injection in mice; type: in vivo, Swiss Webster mice
Experimental: To avoid analytical interference from endogenous plasma proteins in the chromatogram when assaying Itra and Posa in plasma samples, an extraction/purification step utilizing precipitation of protein material with acetonitrile was performed. Briefly, plasma proteins were precipitated by adding acetonitrile to a final volume ratio plasma:acetonitrile of 1:2. The mixture was vortexed for 30 seconds and centrifuged for 5 min. at 14,000 rpm in an Eppendorff microcentrifuge. The deproteinated supernatant, containing Itra, was injected into the HPLC to determine the drug concentration.

[2] = test system: Aspergillus fumigatus [LAB-A from patient AF 040 511]; test: Mold susceptibility test (MIC, CLSI M38A); type: cell-based; details: at 48 hr, in novel solvent
Experimental: (§1) The range of drug concentrations tested was 150, 25, 12, 6, 3, 1.5, 0.75, 0.38, 0.19, 0.09, 0.04, and 0 (control) μg/mL. The susceptibility test was set-up using the standard method for filamentous fungi (CLSI, M38A standard). […] Zygomycete (Lab Z) inoculum was made 80% transmission in Saline. […] Posa was supplied at 2.0 mg/ml in vehicle. The Zygomycete was incubated at 33° C. for the first 24 hr to get growth established.

[3] = test system: Rhizomucor sp. [Lab-Z is derived from patient 041511]; test: Mold susceptibility test (MIC, CLSI M38A); type: cell-based; details: at 48 hr, in novel solvent
Experimental: as §1

[4] = test system: Aspergillus fumigatus (ATCC strain 90906); test: Mold susceptibility test (MIC, CLSI M38A); type: cell-based; details: Table 4, read-out at 48 hr, range tested 32 ug/ml to 0.03 ug/ml
Text: To further determine the antifungal activity of the compounds in the new formulation systems the inventors investigated the efficacy of the various agents against additional strains of mucor and Aspergillus (The Rhizomucor was a clinical isolate from a patient isolate) and the Aspergillus fumigatus (ATCC strain 90906) used was as previously described. Again, the susceptibility tests were set-up using the standardized test method (CLSI M38A). The used drugs were provided in the described final use-formulation VE-acetone/PEG/D5W. All drugs were diluted in RPMI-Mops medium: YeastOne, Sensititer (Lot 151416SA, expiration date in 2011).
Briefly, susceptibility tests were set-up using a standardized methodology (CLSI M38A). Drugs were diluted into RPMI-Mops medium (Yeast One Broth (Sensititer, product Y3462, Trek Diagnostic Systems, Cleveland, Ohio) Sensititer Lot number 151416SA—expiration date 2011). Two different strains of […] were tested, the standardized evaluation/read out was performed at 24 hours after the start of each culture. The tests were repeated twice and all MIC values (minimum inhibitory concentration) determined as an average of the two experiments.

[5] = test system: Mucorales (Rhizopus lab strain); test: Mold susceptibility test (MIC); type: cell-based; details: Table 4, read-out at 48 hr, range tested 32 ug/ml to 0.03 ug/ml

Structure (SMILES): CC[C@@H]([C@H](C)O)n1ncn(-c2ccc(N3CCN(c4ccc(OC[C@@H]5CO[C@@](Cn6cncn6)(c6ccc(F)cc6F)C5)cc4)CC3)cc2)c1=O [Posaconazole, posaconazole]
- plasma concentration ([1]; 5 mg/kg BW in mice, from ten minutes to at least 2 hours after drug injection): 3000 to 5000 ng/mL
- plasma concentration, individual ([1]; 5 mg/kg IV, mice, 0.2 hours): 3430 ng/mL and 1880 ng/mL and 4590 ng/mL and 4820 ng/mL
- plasma concentration, individual ([1]; 5 mg/kg IV, mice, 2.0 hours): 4850 ng/mL and 5030 ng/mL and 4210 ng/mL
- plasma concentration, individual ([1]; 5 mg/kg IV, mice, 7.0 hours): 3860 ng/mL
- plasma concentration, individual ([1]; 5 mg/kg IV, mice, 24 hours): 30 ng/mL and 560 ng/mL and 470 ng/mL
- plasma concentration, individual ([1]; 5 mg/kg IV, mice, 30 hours): 140 ng/mL and 290 ng/mL and 40 ng/mL
- concentration at 0.2 hours ([1]; Swiss Webster, mouse, plasma, intravenous, 5 mg/kg, 5 mg/kg IV, mice, 0.2 hours): 3680 ng/mL
- concentration at 2 hours ([1]; Swiss Webster, mouse, plasma, intravenous, 5 mg/kg, 5 mg/kg IV, mice, 2.0 hours, read-out: plasma concentration, individual): 4990 ng/mL
- concentration at 2 hours ([1]; Swiss Webster, mouse, plasma, intravenous, 5 mg/kg, 5 mg/kg IV, mice, 2.0 hours, read-out: plasma concentration, mean): 4770 ng/mL
- concentration at 7 hours ([1]; Swiss Webster, mouse, plasma, intravenous, 5 mg/kg, 5 mg/kg IV, mice, 7.0 hours, read-out: plasma concentration, individual): 2610 ng/mL
- concentration at 7 hours ([1]; Swiss Webster, mouse, plasma, intravenous, 5 mg/kg, 5 mg/kg IV, mice, 7.0 hours, read-out: plasma concentration, mean): 3230 ng/mL
- concentration at 24 hours ([1]; Swiss Webster, mouse, plasma, intravenous, 5 mg/kg, 5 mg/kg IV, mice, 24 hours): 350 ng/mL
- concentration at 30 hours ([1]; Swiss Webster, mouse, plasma, intravenous, 5 mg/kg, 5 mg/kg IV, mice, 30 hours): 160 ng/mL
- MIC [2]: 0.04 µg/mL (≈ 0.0571 µM)
- MIC [3]: 0.04 µg/mL (≈ 0.0571 µM)

Structure (SMILES): CCC(C)n1ncn(-c2ccc(N3CCN(c4ccc(OCC5COC(Cn6cncn6)(c6ccc(Cl)cc6Cl)O5)cc4)CC3)cc2)c1=O (stereo not drawn) [Itraconazole, itraconazole]
- plasma concentration, individual ([1]; 5 mg/kg IV, mice, 10 min): 3860 ng/mL and 3590 ng/mL and 2130 ng/mL
- plasma concentration, individual ([1]; 5 mg/kg IV, mice, 30 min): 1930 ng/mL
- plasma concentration, individual ([1]; 5 mg/kg IV, mice, 120 min): 770 ng/mL
- concentration at 10 min ([1]; Swiss Webster, mouse, plasma, intravenous, 5 mg/kg, 5 mg/kg IV, mice, 10 min, read-out: plasma concentration, individual): 3340 ng/mL
- concentration at 10 min ([1]; Swiss Webster, mouse, plasma, intravenous, 5 mg/kg, 5 mg/kg IV, mice, 10 min, read-out: plasma concentration, mean): 3230 ng/mL
- concentration at 30 min ([1]; Swiss Webster, mouse, plasma, intravenous, 5 mg/kg, 5 mg/kg IV, mice, 30 min, read-out: plasma concentration, individual): 1310 ng/mL
- concentration at 30 min ([1]; Swiss Webster, mouse, plasma, intravenous, 5 mg/kg, 5 mg/kg IV, mice, 30 min, read-out: plasma concentration, mean): 1620 ng/mL
- concentration at 60 min ([1]; Swiss Webster, mouse, plasma, intravenous, 5 mg/kg, 5 mg/kg IV, mice, read-out: plasma concentration, individual): 770 ng/mL
- concentration at 60 min ([1]; Swiss Webster, mouse, plasma, intravenous, 5 mg/kg, 5 mg/kg IV, mice, read-out: plasma concentration, mean): 770 ng/mL
- concentration at 120 min ([1]; Swiss Webster, mouse, plasma, intravenous, 5 mg/kg, 5 mg/kg IV, mice, 120 min, read-out: plasma concentration, individual): 640 ng/mL
- concentration at 120 min ([1]; Swiss Webster, mouse, plasma, intravenous, 5 mg/kg, 5 mg/kg IV, mice, 120 min, read-out: plasma concentration, mean): 710 ng/mL

Structure (SMILES): CC[C@@H]([C@H](C)O)n1ncn(-c2ccc(N3CCN(c4ccc(OC[C@@H]5CO[C@@](Cn6cncn6)(c6ccc(F)cc6F)C5)cc4)CC3)cc2)c1=O [Posa/D, posaconazole]
- MIC [4]: 0.03 µg/mL (≈ 0.0428 µM)
- MIC [5]: 0.12 µg/mL (≈ 0.171 µM)

Structure (SMILES): CCC(C)n1ncn(-c2ccc(N3CCN(c4ccc(OCC5COC(Cn6cncn6)(c6ccc(Cl)cc6Cl)O5)cc4)CC3)cc2)c1=O (stereo not drawn) [Itra/D, itraconazole]
- MIC [4]: 0.12 µg/mL (≈ 0.17 µM)
- MIC [5]: 0.6 µg/mL (≈ 0.85 µM)
